These results are taken from patent US9074014B2 (Ipsen Pharma S.A.S., priority 2008, dated 2015).

Where a SMILES comes first, the peptide text is derived from it. Where no end group is shown, it is not given here. [ ]: non-standard residue; d: D form. Ac6c = NC1(C(=O)O)CCCCC1; Nle = CCCC[C@H](N)C(=O)O; Ac5c = NC1(C(=O)O)CCCC1; Aib = CC(C)(N)C(=O)O

A short description of data set [1]: Human plasma half-life assay. Type of data set: in vitro ADME. Particulars: human plasma, 37° C., LC-MS; read-out: Human Plasma T½ (converted).
For data set [2], the target named is T1, human recombinant GIP receptor (Homo sapiens, UniProt P48546).
T1 construct: expressed in transfected cells; host or cells: CHO-K1 clonal cells (membranes)
T1 sequence (P48546 22-466): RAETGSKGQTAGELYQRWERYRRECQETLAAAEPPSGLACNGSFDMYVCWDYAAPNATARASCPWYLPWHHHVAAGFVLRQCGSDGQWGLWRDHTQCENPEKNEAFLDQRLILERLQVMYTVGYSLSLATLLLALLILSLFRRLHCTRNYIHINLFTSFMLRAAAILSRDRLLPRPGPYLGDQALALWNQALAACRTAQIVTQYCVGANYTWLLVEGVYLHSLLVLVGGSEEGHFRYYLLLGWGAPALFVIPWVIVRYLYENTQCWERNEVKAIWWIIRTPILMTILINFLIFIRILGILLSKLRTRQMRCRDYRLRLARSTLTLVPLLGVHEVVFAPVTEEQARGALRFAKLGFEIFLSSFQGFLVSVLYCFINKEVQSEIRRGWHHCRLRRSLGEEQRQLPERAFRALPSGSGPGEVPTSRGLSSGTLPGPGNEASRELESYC
The experiment in a line: In vitro hGIP receptor binding assay ([125I]GIP displacement, CHO-K1 membranes). The text has this: A. In Vitro hGIP Receptor Binding Assay

The nature of data set [3]: Rat plasma half-life assay. It is filed as in vitro ADME. To be noted: rat plasma, 37° C., LC-MS; read-out: Rat Plasma T½ (converted).

Take `CCCC[C@H](NC(=O)[C@H](C)NC(=O)[C@@H](NC(=O)[C@H](CO)NC(=O)[C@H](Cc1ccc(O)cc1)NC(=O)[C@H](CC(=O)O)NC(=O)[C@H](CO)NC(=O)[C@@H](NC(=O)[C@H](Cc1ccccc1)NC(=O)[C@@H](NC(=O)CNC(=O)[C@H](CCC(=O)O)NC(=O)C1(NC(=O)[C@@H](N)Cc2ccc(O)cc2)CCCC1)[C@@H](C)O)[C@@H](C)CC)[C@@H](C)CC)C(=O)N[C@@H](CC(=O)O)C(=O)N[C@@H](CCCCN)C(=O)N[C@H](C(=O)N[C@@H](Cc1c[nH]cn1)C(=O)N[C@@H](CCC(N)=O)C(=O)N[C@@H](CCC(N)=O)C(=O)N[C@@H](CC(=O)O)C(=O)N[C@@H](Cc1ccccc1)C(=O)N[C@H](C(=O)N[C@@H](CC(N)=O)C(=O)N[C@@H](Cc1c[nH]c2ccccc12)C(=O)N[C@@H](CC(C)C)C(=O)N[C@@H](CC(C)C)C(=O)N[C@@H](C)C(=O)N[C@@H](CCC(N)=O)C(=O)N[C@@H](CCCCN)C(=O)NCC(=O)N[C@@H](CCCCN)C(=O)N[C@@H](CCCCN)C(=O)N[C@@H](CC(N)=O)C(=O)N[C@@H](CC(=O)O)C(=O)N[C@@H](Cc1c[nH]c2ccccc12)C(=O)N[C@@H](CCCCN)C(=O)N[C@@H](Cc1c[nH]cn1)C(=O)N[C@@H](CC(N)=O)C(=O)N[C@H](C(=O)N[C@H](C(=O)N[C@@H](CCC(N)=O)C(=O)O)[C@@H](C)O)[C@@H](C)CC)C(C)C)[C@@H](C)CC` [Example 40, (A5c^2, Nle^14)hGIP(1-42)-OH]: the half-life at 0.1 mg/ml in data set [1] is 7.7 h; in data set [3] it was 4.9 h. Further, in data set [2], the Ki (as a rule, a dissociation constant, usually derived from enzyme kinetics or from competition with a known ligand) stood at 15.9 nM.
Take “Y[Aib]EGTFISDYSIA[Ac6c]DKIHQQDFVNWLLAQKGKKNDWKHNITQ-OH [Example 42, (Aib^2, A6c^14)hGIP(1-42)-OH]”: the figures for the half-life at 0.1 mg/ml in data set [1] and in data set [3] were 10.6 h and 6.2 h, respectively. The Ki in data set [2] is 0.07 nM.
For “Y[Aib]EGTF[Ac6c]SDYSIAMDKIHQQDFVNWLLAQKGKKNDWKHNI[Aib]Q-OH [Example 23, (Aib^2, 41, A6c^7)hGIP(1-42)-OH]”, in that order: over 48 h, 6.7 h and 0.87 nM.
For `CCCC[C@H](NC(=O)[C@H](C)NC(=O)[C@@H](NC(=O)C1(NC(=O)[C@H](Cc2ccc(O)cc2)NC(=O)[C@H](CC(=O)O)NC(=O)[C@H](CO)NC(=O)[C@@H](NC(=O)[C@H](Cc2ccccc2)NC(=O)[C@@H](NC(=O)CNC(=O)[C@@H]2CCCN2C(=O)[C@H](C)NC(=O)[C@@H](N)Cc2ccc(O)cc2)[C@@H](C)O)[C@@H](C)CC)CCCC1)[C@@H](C)CC)C(=O)N[C@@H](CC(=O)O)C(=O)N[C@@H](CCCCN)C(=O)N[C@H](C(=O)N[C@@H](Cc1c[nH]cn1)C(=O)N[C@@H](CCC(N)=O)C(=O)N[C@@H](CCC(N)=O)C(=O)N[C@@H](CC(=O)O)C(=O)N[C@@H](Cc1ccccc1)C(=O)N[C@H](C(=O)N[C@@H](CC(N)=O)C(=O)N[C@@H](Cc1c[nH]c2ccccc12)C(=O)N[C@@H](CC(C)C)C(=O)N[C@@H](CC(C)C)C(=O)N[C@@H](C)C(=O)N[C@@H](CCC(N)=O)C(=O)N[C@@H](CCCCN)C(=O)O)C(C)C)[C@@H](C)CC` [Example 92, (Pro^3, A5c^11, Nle^14)hGIP(1-30)-OH] (H-YAPGTFISDY[Ac5c]IA[Nle]DKIHQQDFVNWLLAQK-OH; N-terminus and C-terminus assumed), in that order: 12 h, 1.6 h and 86.8 nM.
For “Y[Aib]EGTF[Ac6c]SDYSIAMDKIHQQDFVNWLLAQKGKKNDWKHNITQ-OH [Example 43, (Aib^2, A6c^7)hGIP(1-42)-OH]”, in that order: 8.8 h, 7.7 h and 0.3 nM.
